Like-named read-outs stand apart in the source and are kept apart here.
Columns and labels:
[1] = target: T1, NQO2 (Homo sapiens, UniProt P16083); assay: EPR measurement of free radicals (ROS) produced after metabolism by NQO2; assay type: biochemical; details: for radical production after reduction by NQO2: EPR with DMPO spin trap
T1 construct: The experiments were conducted with purified enzyme NQO2 (20 µg/mL)
T1 sequence (P16083 1-231): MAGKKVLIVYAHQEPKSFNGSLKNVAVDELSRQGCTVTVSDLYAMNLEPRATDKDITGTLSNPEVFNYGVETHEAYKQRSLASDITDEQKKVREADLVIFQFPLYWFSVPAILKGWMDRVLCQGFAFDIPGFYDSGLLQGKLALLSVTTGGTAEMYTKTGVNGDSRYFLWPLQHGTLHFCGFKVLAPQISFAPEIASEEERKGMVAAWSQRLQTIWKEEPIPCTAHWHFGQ
Protocol: As in previous work, we used an indirect assay to characterize the substrates. […] Using the capacity of NQO2 to reduce quinones into hydroquinones or quinols, we incubated the substrate candidates with the enzyme and its co-substrate, a synthetic hydride donor, N-benzyldihydronicotinamide. […] Thus, using an EPR-based assay, it was possible to evaluate the potency of the process by quantifying those bursts by measuring for the presence of free radicals. The rationale of the process was based on the simple idea that such substrates would generate bursts of ROS, which are particularly toxic for infected red cells.
We measured the ability of the selected compounds to produce superoxide radicals during the redox cycle of NQO2 by EPR spectroscopy. The following compounds were used as molecular tools: Menadione (Figure 1) as a reference compound and NQO2 substrate, S29434 as a specific NQO2 inhibitor [17] and dimethyl-pyrroline-N-oxide (DMPO) as a spin trap reagent to characterize ROS.
The experiments were conducted with purified enzyme NQO2 (20 µg/mL), DMPO (125 mM), tested compounds (125 µM) and BNAH (1 mM). For inhibition assays, we added S29434 (30 µM). All analyses were performed at room temperature. EPR spectra were recorded with a Bruker EMX-8/2.7 (9.86 GHz) with a high-sensitivity cavity (4119/HS 0205) and a gaussmeter (Bruker, Wissembourg, France), at X-band. For analyses, we used a flat quartz cell, FZKI160-5 × 0.3 mm (Magnettech, Berlin, Germany). We performed data processing and spectrum acquisition with WINEPR software (Bruker). Scanning parameters were: Number of scans, 5; magnetic field, 3460–3560 G; sweep width, 100 G; scan rate, 1.2 G/s; modulation amplitude, 1 G; sweep time, 83.88 s; time constant, 40.96 ms; modulation frequency, 100 kHz; and microwave power, 20 mW. The EPR spectra were analyzed as reported previously. The EPR spectrum was presented with the magnetic field on the x-axis in gauss (g) and the intensity of the peaks on the y-axis in arbitrary units (a.u.).

[2] = Cytotoxic evaluation on the Hela cell line (MTT assay); assay type: cell-based; details: human, Hela cells
Protocol: The evaluation of the tested molecules’ cytotoxicity on the Hela cell line was conducted according to the method of Mosman with slight modifications. Briefly, cells (1 × 10^5 cells/mL) in 100 µL of complete medium, (MEM supplemented with 10% fetal bovine serum, 2 mM L-glutamine and antibiotics (100 U/mL penicillin and 100 µg/mL streptomycin) were seeded into each well of the 96-well plates and incubated at 37 °C and 5% CO2. After a 24 h incubation, 100 µL of medium with various product concentrations and appropriate controls were added and the plates were incubated for 72 h at 37 °C and 5% CO2. Each plate-well was then microscope-examined to detect possible precipitate formation before the medium was aspirated from the wells. MTT solution (100 µL, 0.5 mg/mL in RPMI) was then added to each well. Cells were incubated for 2 h at 37 °C and 5% CO2. After this time, the MTT solution was removed and DMSO (100 µL) was added to dissolve the resulting formazan crystals. Plates were shaken vigorously (300 rpm) for 5 min. The absorbance was measured at 570 nm with a microplate spectrophotometer (Eon BioTek). DMSO was used as blank and doxorubicin (purchased from Sigma Aldrich) as positive control. CC50 were calculated by non-linear regression analysis processed on dose response curves, using TableCurve 2D V5 software (San Jose, CA, USA). CC50 values represent the mean value calculated from three independent experiments.

[3] = tested on: P. falciparum strain FcB1; assay: In vitro antiplasmodial activity, SYBR Green I-based fluorescence assay; assay type: cell-based, Plasmodium falciparum
Protocol: The in vitro anti-malarial activity was investigated using the SYBR Green I-based fluorescence assay. The asexual intra-erythrocytic stage of P. falciparum laboratory strain FcB1 (chloroquine-resistant strain) was maintained in RPMI 1640 medium containing l-glutamine 200 µM, Hepes 25 mM and 5% human serum (Etablissement Français du Sang—EFS, Toulouse, France). For anti-malarial drug assays, stock solutions of compounds were diluted serially in RPMI 1640 culture medium to test final concentrations between 0.001 and 1 µg/mL in triplicates in a 96-well plate. The final concentration of DMSO was 0.5%. A suspension of sorbitol-synchronized, infected red blood cells (iRBCs) was adjusted to 1% parasitemia and 2% hematocrit in complete medium and added to the wells. Negative controls were prepared with a suspension of iRBCs and 0.5% DMSO. Chloroquine was used as the positive control. Test plates were incubated at 37 °C for 48 h. Afterwards, 100 μL SYBR Green I fluorescent lysis buffer were added to each well and incubated in a dark place at room temperature for 2 h. Fluorescence data were acquired using a fluorescence plate reader (BMG Fluostar Galaxy Labtech) with excitation and emission wavelengths at 485 nm and 518 nm, respectively. The fluorescence values (after subtraction of the background fluorescence of the non-parasitized RBCs) were plotted against the log of the drug concentration, and analyzed by non-linear regression (sigmoidal dose response/variable slope equation) to yield the IC50 (50% inhibitory concentration) that served as a measure of the anti-malarial activity.

[4] = tested on: P. chabaudi chabaudi; assay: Four-days suppressive test, P. chabaudi chabaudi mice model (uncomplicated malaria); assay type: in vivo, Plasmodium chabaudi chabaudi in Swiss mice; details: chloroquine 10 mg/kg intraperitoneal D0 to D3, D8
Protocol: As previously described, the four-days suppressive standard test described by Knight and Peters was used to evaluate antimalarial activity of Compounds 1 and 3. P. chabaudi chabaudi (Pcc) and P. berghei ANKA (PbA) infections in Swiss mice were used as experimental models for uncomplicated and cerebral malaria, respectively. […] On the first day (D0), mice were inoculated intraperitoneally with 0.2 mL of infected blood containing about 1 × 10^6 parasitized erythrocytes. […] All mice groups were treated similarly for four consecutive days (D0–D3). Weight, parasitemia and survival were followed daily. To follow peripheral parasite density, thin blood smears were made daily from tail blood from D3 to D14. Blood smears were fixed with methanol and stained with a fast-acting variation of the May–Grünwald Giemsa staining (RAL 555 kit, RAL diagnostics). Average percentage chemosuppression was calculated at D8 for both infection models as ((A − B)/A) × 100 where A is the average percentage parasitemia in the negative control group and B is the average percentage parasitemia in the test group. Survival was monitored twice daily. […]

[5] = Plasmodium falciparum, FCB1, 48 h, P. falciparum FcB1 (chloroquine-resistant strain), 48 h, read-out: IC50

CC1=CC(=O)c2ccccc2C1=O [Menadione, menadione, reference compound]
ROS after NQO2 Reduction ([1]; EPR, purified NQO2 20 µg/mL, compound 125 µM, BNAH 1 mM, DMPO 125 mM, grades - to + + + + +, key not given): + + + + +

COc1ccc2c(c1)C1=C(C(=O)C2=O)C(C)(C)C(C)O1 (centres unmarked) [Compound 2]
CC50 at 72 h [2]: 1250 ± 160 nM | radical production after reduction by NQO2 [1]: no radicals were detected | TI (Therapeutic Index = CC50/IC50) [3]: 2.15 | IC50 ([3]; P. falciparum FcB1 (chloroquine-resistant strain), 48 h, read-out: IC50): 580 ± 503 nM | IC50 [3, 5]: 630 to 850 nM

COc1ccc2c(c1)C(=O)C1=C(OC(C)C1(C)C)C2=O (centres unmarked) [Compound 5]
CC50 at 72 h [2]: 14900 ± 3230 nM | radical production after reduction by NQO2 [1]: no radicals were detected | CC50 values fold higher than the IC50 value [3]: 8-9 fold | TI (Therapeutic Index = CC50/IC50) [3]: 9.81 | IC50 [3, 5]: 1520 ± 853 nM

CCN(CC)CCCC(C)Nc1ccnc2cc(Cl)ccc12 (centres unmarked) [Chloroquine, chloroquine, reference compound]
% inhibition of parasite density at D8 [4]: 98.2% | IC50 ([3]; Plasmodium falciparum, FCB1, 48 h): 0.164 ± 0.055 nM

COc1ccc2c(c1)C1=C(CCC(C)(C)O1)C(=O)C2=O [Compound 7]
CC50 at 72 h [2]: 1660 ± 368 nM | radical production after reduction by NQO2 [1]: no radicals were detected | TI (Therapeutic Index = CC50/IC50) [3]: 2.21 | IC50 [3, 5]: 753 ± 484 nM

— paper PMC6832513, “Antimalarial Properties of Dunnione Derivatives as NQO2 Substrates” (Molecules, 2019)
